Assay results taken from publication PMC6394990, “Detailed characterization of the solution kinetics and thermodynamics of biotin, biocytin and HABA binding to avidin and streptavidin” (PLoS ONE, 2019).
Where “and” joins values, the source holds several entries; their conditions need not be identical. Equal values may be shown once. Read-outs that look alike come from different tables or passages of the source.

Target: T1, avidin (AV) (Gallus gallus, UniProt P02701)
T1 construct: purchased Calbiochem (La Jolla, CA)
Assay: Stopped-flow association kinetics of dye-labeled biotin probes binding to avidin (F(t), rF(t); Arrhenius plots/global fitting)
Set-up: ln(k) / dS+ / dG+ / Eon for BFl / b of the line y = m1x+b1: unit not given here
Settings: for k(average): k (full value)
Experimental: These reactions were carried out in a buffered solution of 10 mM Tris-HCl, 100 mM KCl, 2.5 mM MgCl2 and 1 mM CaCl2 at pH 8 and only AV-BcO reactions included pH 9 and 10. The concentrations, after mixing, were of 20 nM of dye-labeled B7 probe and 260 nM, 520 nM or 1040 nM of AV; and 200 nM, 300 nM, 400 nM or 800 nM of SAV at temperatures of 10, 15, 20 and 25°C. The deglycosylation of AV (for comparative association reactions) was carried out using the provided standard protocol with endoglycosidase H [47], both with and without incubation of a denaturant solution (2% SDS and 1M 2-mercaptoethanol).
The reactions were collected with the SF instrument, described previously. The fluorescence signal was collected through a 520 nm interference filter (Oriel Corp., Stratford, CT) with a detector time constant and SF dead time of 1 μs and 1 ms, respectively. The excitation light was provided by the Coherent Ar^+ ion laser (described above) at 488 nm with […] of incident power on the reaction cuvette. The laser source was followed by the photo-elastic modulator described above with the axis oriented 45^o with respect to the electric vector of the incident light and with the half-wave modulation (50 kHz) set for 488 nm excitation. The demodulation circuitry following the photomultiplier provided a DC(t) and a rectified AC(t) which were converted to digital data by a high-speed digitizer (PCI-5122) from National Instruments (Austin, TX) with 14-bit resolution and 100 MHz bandwidth, through channels 0 and 1. The data acquisition was controlled by LabVIEW (Vr 8) software at a collection rate of 6120 data points/second and stored in spreadsheets. The AC(t) and DC(t) data were baseline corrected before obtaining the signal ratio (Eq 4) as a function of time (ρt).
The constant AGain is the instrumental amplitude gain and was evaluated by solving ρ(t) using the known steady state anisotropy (rss) of the complexes which is equivalent to the r(t) at t = ∞; and H, obtained from the equivalent grating factor (G) for the filters and photo multiplier tubes in the SF. For the probes used in here G was 0.82 and H = (1-G)/(1+G) = 0.099. Knowing Again and H, the AC(t) and DC(t) signals can be solved for r(t) and F(t) (Eqs 4 and 5) and the normalized fluorescence, F¯(t) , and corrected fluorescence anisotropy, rF¯(t), were obtained when F¯(0) and rF¯(0) were scaled to 1 at t = 0.
The F¯(t) (Eq 6) is equivalent to (I||) + 2 (I⊥) and proportional to quantum yield (QYi), molar absorptivity (εi) and to the formation or disappearance of the emitting species Xi(t); and rF¯(t) including the steady state anisotropies (rss) of each fluorescent species (Eq 7).
The possible reaction models were discriminated by the squared residuals of the observed and calculated association traces of both fluorescence and anisotropy fluorescence signals, F¯(t) and rF¯(t) , respectively.

[1] = AV, average over the dye-labeled B7 probes, used for AV-B7

T1 sequence (P02701 25-152): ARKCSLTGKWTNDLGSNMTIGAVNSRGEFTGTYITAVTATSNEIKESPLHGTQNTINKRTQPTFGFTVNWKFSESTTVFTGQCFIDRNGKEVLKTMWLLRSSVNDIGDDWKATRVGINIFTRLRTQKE

O=C(CCCC[C@@H]1SC[C@@H]2NC(=O)N[C@@H]21)NCCNC(=O)c1ccc(-c2c3ccc(=O)cc-3oc3cc(O)ccc23)c(C(=O)O)c1 [BFl, Biotin-4-fluorescein]
kon fold slower than Green's 7 × 10^7 M^-1s^-1 (25°C and pH 8 vs 25°C and pH 5): 3.8 X | fold by which the SPR kon (ref 20) is slower than the kon of the probe (AV): ~ 9 X | kon (AV, 25°C, read-out: kon): ~1.9e+07 M⁻¹ s⁻¹ | Ea^Forward (AV, pH 8): 14.6 ± 0.6 kcal/mol | ln(k) (AV, pH8, 10 (283.15 K)): 15.4 | k(average) (AV, pH8, 10 (283.15 K)): 4.86E+06 | kon (AV, pH8, 10 (283.15 K), k (scaled)): 4.9e+06 M⁻¹ s⁻¹ | ln(k) (AV, pH8, 15 (288.15 K)): 15.8 | k(average) (AV, pH8, 15 (288.15 K)): 7.60E+06 | kon (AV, pH8, 15 (288.15 K), k (scaled)): 7.6e+06 M⁻¹ s⁻¹ | ln(k) (AV, pH8, 20 (293.15 K)): 16.2 | k(average) (AV, pH8, 20 (293.15 K)): 1.07E+07 | kon (AV, pH8, 20 (293.15 K), k (scaled)): 1.07e+07 M⁻¹ s⁻¹ | ln(k) (AV, pH8, 25 (298.15 K)): 16.7 | k(average) (AV, pH8, 25 (298.15 K)): 1.85E+07 | kon (AV, pH8, 25 (298.15 K), k (scaled)): 1.85e+07 M⁻¹ s⁻¹ | ΔG^ǂ (AV, pH 8, forward): 4.2 ± 0.5 kcal/mol | ΔS^ǂ (AV, pH 8, forward): 34.9 ± 2.0 cal/°K·mol | slope (Arrhenius linear fit) (AV, ph8): -7342.9 | kcal/mol (from Arrhenius slope) (AV, ph8, the values are: Ea forward): 14.6 kcal/mol | Eon for BFl (Enthalpy block, AV): 14.4 | kon (pH 8, AV, pH 8, 10°C, read-out: kon): 4.86e+06 ± 600000 M⁻¹ s⁻¹ | kon (pH 8, AV, pH 8, 15°C, read-out: kon): 7.6e+06 ± 2e+06 M⁻¹ s⁻¹ | kon (pH 8, AV, pH 8, 20°C, read-out: kon): 1.07e+07 ± 1.6e+06 M⁻¹ s⁻¹ | kon (pH 8, AV, pH 8, 25°C, read-out: kon): 1.85e+07 ± 2e+06 M⁻¹ s⁻¹

O=C(O)CCCC[C@@H]1SC[C@@H]2NC(=O)N[C@@H]21 [B7, d-biotin]
Eaon + (-∆H°) (AV-B): 36.5 ± 1.3 kcal/mol | ∆G°ǂ + (-∆G°) (AV-B): 25.4 ± 1.0 kcal/mol | ∆S°ǂ + (-∆S°) (AV-B): 41.9 ± 2.0 cal/mol°K | ΔE = Ea^Forward-Ea^Backward (AV-B7, column 3 minus 4): -23.2 ± 2.2 kcal/mol and -23.2 kcal/mol | ΔG° ^ǂ, Forward -ΔG° ^ǂ, Backward (AV-B7, column 3 minus 4): -20.0 ± 4.0 kcal/mol | ΔS° ^ǂ, Forward -ΔS° ^ǂ, Backward (AV-B7, column 3 minus 4): -11.0 ± 2.5 cal/mol°K | fold slower than 10^9 M^-1s^-1 (diffusion limited) (AV, 25°C): 54-714 X | ΔG^ǂ, Forward [1]: 4.7 ± 0.3 kcal/mol and 4.7 kcal/mol | ΔS^ǂ, Forward [1]: 32 cal/°K·mol | ΔS^ǂ, Forward (AV, average over the dye-labeled B7 probes, used for AV-B7, listed as B): 33.0 ± 2.0 cal/°K·mol
